Where two headings read alike, the source gives them in different places. Blank lines part the entries; values can stand above or below the molecule they belong to.
Key:
Pseudomonas aeruginosa = assay: Phenotypic QolorAST rapid AST (resazurin reduction); format: cell-based; conditions: 10^5 cfu/mL PA, antibiotic concentrations, 0-60 min
Experimental: (§1) Resistant E. coli, Oxacillin-resistant S. aureus, and Cipro. Resistant PA respectively was used. The aliquots were incubated at 37° C. different periods starting from 0 minutes incubation till 60 minutes with a time step of 5 minutes.
(§2) Resistant PA respectively was used. The aliquots were incubated at 37° C. different periods starting from 0 minutes incubation until 60 minutes with a time step of 5 minutes.
(§3) MRSA and PA respectively.

MRSA [1] = assay: as above; format: cell-based, Staphylococcus aureus; conditions: 10^5 cfu/mL MRSA, antibiotic concentrations, 0-60 min
Experimental: as §1, §2, §3

MRSA [2] = assay: QolorAST minimum inhibitory concentration (MIC) test; format: cell-based, Staphylococcus aureus
Experimental: Ampicillin-resistant E. coli strain mm294 was cultured overnight at 37° C. in Luria broth (LB) media supplemented with 100 μg/mL Ampicillin. […] Next, the bacterial concentration was determined by optical density technique using a Spectronic 21D spectrophotometer. Subsequently, aliquots of different concentrations were prepared for the antibiotic susceptibility testing experiments in LB media. Biotyper spectra (MALDI Bruker).
5×10^5 CFU ml^−1 Oxacillin-resistant S. aureus aliquots were prepared using resazurin/oxacillin solution using different concentrations of oxacillin antibiotic (16 μg/mL, 32 μg/mL, and 64 μg/mL). 5×10^5 CFU ml^−1 Cipro.
A minimum inhibitory concentration (MIC) was performed to study the QolorAST broad applicability in detecting bacterial resistance profiles and ensuring timely and efficient antimicrobial theraby. […] The antibiotics cover major bacterial inhibition mechanisms as inhibition of protein synthesis, cell wall synthesis, and/or DNA synthesis.
QolorAST exploited two methodologies: Manual MIC (MA-MIC) and support vector machine MIC (SVM-MIC). […] The SVM-MIC was carried out with a rbf kernel that was optimized and trained to predict the color change of the preclinical images using our library of bacteria images collected under different conditions including images where color is changed, color transitioning, and no color change. The SVM successfully classified the condition's bacteria-antibiotic in the concentration range studied.

E. coli [3] = test system: E. coli
Experimental: To evaluate the QolorAST performance in clinical settings, a double-blinded clinical study at the McGill University Health Center (MUHC) was performed. 47 patients suspected of urinary tract infections, admitted to MUHC emergency clinics between August 2022 to August 2023 were tested. Specimens were consented, collected from the patients and the experiments were done in microbiology labs in MUHC. Each specimen were divided in 3 to be tested in parallel in the central laboratory of the hospital (quantification, identification and MIC), in the research laboratory (quantification, identification and MIC for 2 antibiotics) and with QolorAST genotypic/phenotypic assays in microbiology lab at MUHC. The device has 24 chambers where the media/resazurin/antibiotic mixes as well as the patient samples are injected mixed. […] Therefore, reagent loading port was preloaded with media, specific concentration antibiotic and resazurin at final concentration of 0.25 mg/mL and urine was added to urine loading port. Thereafter, by pressing the pushing button the urine was mixed with the rest of solution at a volumetric ratio of 1:4 which would be the starting point for incubation and imaging of the samples. The samples were incubated at 37° C. at different timepoints starting from 0 to 60 minutes with a time interval of 10 minutes and the imaging was performed as described above.

E. coli [4] = assay: Standard broth microdilution MIC on isolates from patient urine specimens; format: cell-based, Escherichia coli
Experimental: For the standard testing the urine specimens were diluted 1/1000 using CamHB and both the original concentration and a 1/1000 dilution of the specimen were plated on BAP with a 1 μL calibrated loop and incubated for 18-20h at 37 C with 5% CO2. The […] concentration is then calculated for all the isolates coming from each specimen. […] At the end of the process, the inoculum quantification is checked by counted CFU from serial dilutions of the inoculum. A growth positive control (inoculum with no antibiotic), a wild type strain of E. Coli (MG1655) and E. Faecalis are also included and processed in the same way as the isolates for each experiment. Finally, each isolate is plated on BAP to control their monoculture state and to be identified by MALDI.
Samples were tested in parallel using two methods: conventional (Matrix-assisted laser desorption/ionization-time of flight—MALDI/TOF—for bacterial identification and CLSI BMD method for AST) and QolorAST (genotypic for bacterial ID and phenotypic AST). […] Subsequently, we used the images of negative, fastidious, and not fastidious samples to establish a new training for the SVM to classify the specimens into no growth (negative) and growth (positive) classes. We implemented a detection time of 30 mins and a cutoff threshold of 0.6 to differentiate between positive and negative specimens (FIG. 34G).

QolorAST MIC Manual (MA-MIC) (MRSA [2]): 1 µg/mL
QolorAST MIC SVM (SVM-MIC) (MRSA [2]): 1 µg/mL
SMILES: O=C(O)c1cn(C2CC2)c2cc(N3CCNCC3)c(F)cc2c1=O [Ciprofloxacin]
QolorAST colour readout over incubation (Pseudomonas aeruginosa): consistent color change from blue to green
QolorAST colour readout over incubation (MRSA [1]): consistent blue color
resistance or susceptibility (MRSA [2]): susceptibility

QolorAST MIC Manual (MA-MIC) (E. coli [3]; Patient # 49, urine specimen): 8
QolorAST MIC SVM (SVM-MIC) (E. coli [3]; Patient # 49, urine specimen): 8
QolorAST MIC Manual (MA-MIC) (E. coli [3]; Patient # 50, urine specimen): 8
QolorAST MIC SVM (SVM-MIC) (E. coli [3]; Patient # 50, urine specimen): 8
QolorAST MIC Manual (MA-MIC) (E. coli [3]; Patient # 51*, urine specimen): <0.25
QolorAST MIC SVM (SVM-MIC) (E. coli [3]; Patient # 51*, urine specimen): <0.25
QolorAST MIC Manual (MA-MIC) (E. coli [3]; Patient # 52, urine specimen): 16
QolorAST MIC SVM (SVM-MIC) (E. coli [3]; Patient # 52, urine specimen): 16
QolorAST MIC Manual (MA-MIC) (E. coli [3]; Patient # 53, urine specimen): 4
QolorAST MIC SVM (SVM-MIC) (E. coli [3]; Patient # 53, urine specimen): 4
QolorAST MIC Manual (MA-MIC) (E. coli [3]; Patient # 54, urine specimen): 4
QolorAST MIC SVM (SVM-MIC) (E. coli [3]; Patient # 54, urine specimen): 4
QolorAST MIC Manual (MA-MIC) (E. coli [3]; Patient # 55, urine specimen): 8
QolorAST MIC SVM (SVM-MIC) (E. coli [3]; Patient # 55, urine specimen): 8
QolorAST MIC Manual (MA-MIC) (E. coli [3]; Patient # 56, urine specimen): 8
QolorAST MIC SVM (SVM-MIC) (E. coli [3]; Patient # 56, urine specimen): 8
QolorAST MIC Manual (MA-MIC) (E. coli [3]; Patient # 57, urine specimen): 8
QolorAST MIC SVM (SVM-MIC) (E. coli [3]; Patient # 57, urine specimen): 8
QolorAST MIC Manual (MA-MIC) (E. coli [3]; Patient # 58, urine specimen): 8
QolorAST MIC SVM (SVM-MIC) (E. coli [3]; Patient # 58, urine specimen): 8
QolorAST MIC Manual (MA-MIC) (E. coli [3]; Patient # 59, urine specimen): 16
QolorAST MIC SVM (SVM-MIC) (E. coli [3]; Patient # 59, urine specimen): 16
QolorAST MIC Manual (MA-MIC) (E. coli [3]; Patient # 60, urine specimen): 4
QolorAST MIC SVM (SVM-MIC) (E. coli [3]; Patient # 60, urine specimen): 4
QolorAST MIC Manual (MA-MIC) (E. coli [3]; Patient # 61, urine specimen): 4
QolorAST MIC SVM (SVM-MIC) (E. coli [3]; Patient # 61, urine specimen): 4
QolorAST MIC Manual (MA-MIC) (E. coli [3]; Patient # 62, urine specimen): 6
QolorAST MIC SVM (SVM-MIC) (E. coli [3]; Patient # 62, urine specimen): 6
QolorAST MIC Manual (MA-MIC) (E. coli [3]; Patient # 63, urine specimen): 4
QolorAST MIC SVM (SVM-MIC) (E. coli [3]; Patient # 63, urine specimen): 4
QolorAST MIC Manual (MA-MIC) (E. coli [3]; Patient # 64, urine specimen): 8
QolorAST MIC SVM (SVM-MIC) (E. coli [3]; Patient # 64, urine specimen): 8
QolorAST MIC Manual (MA-MIC) (E. coli [3]; Patient # 65, urine specimen): 8
QolorAST MIC SVM (SVM-MIC) (E. coli [3]; Patient # 65, urine specimen): 8
QolorAST MIC Manual (MA-MIC) (E. coli [3]; Patient # 66, urine specimen): 8
QolorAST MIC SVM (SVM-MIC) (E. coli [3]; Patient # 66, urine specimen): 8
QolorAST MIC Manual (MA-MIC) (E. coli [3]; Patient # 67*, urine specimen): <0.25
QolorAST MIC SVM (SVM-MIC) (E. coli [3]; Patient # 67*, urine specimen): <0.25
QolorAST MIC Manual (MA-MIC) (E. coli [3]; Patient # 68, urine specimen): 8
QolorAST MIC SVM (SVM-MIC) (E. coli [3]; Patient # 68, urine specimen): 8
Broth Microdilution MIC (MIC) (E. coli [4]; Patient # 49, E. coli): 8
Broth Microdilution MIC (MIC) (E. coli [4]; Patient # 50, E. coli): 8
Broth Microdilution MIC (MIC) (E. coli [4]; Patient # 51*, E. coli): 16
Broth Microdilution MIC (MIC) (E. coli [4]; Patient # 52, E. coli): 16
Broth Microdilution MIC (MIC) (E. coli [4]; Patient # 53, E. coli): 6
Broth Microdilution MIC (MIC) (E. coli [4]; Patient # 54, E. coli): 4
Broth Microdilution MIC (MIC) (E. coli [4]; Patient # 55, E. coli): 8
Broth Microdilution MIC (MIC) (E. coli [4]; Patient # 56, E. coli): 8
Broth Microdilution MIC (MIC) (E. coli [4]; Patient # 57, E. coli): 8
Broth Microdilution MIC (MIC) (E. coli [4]; Patient # 58, E. coli): 8
Broth Microdilution MIC (MIC) (E. coli [4]; Patient # 59, E. coli): 16
Broth Microdilution MIC (MIC) (E. coli [4]; Patient # 60, E. coli): 16
Broth Microdilution MIC (MIC) (E. coli [4]; Patient # 61, E. coli): 4
Broth Microdilution MIC (MIC) (E. coli [4]; Patient # 62, E. coli): 6
Broth Microdilution MIC (MIC) (E. coli [4]; Patient # 63, E. coli): 4
Broth Microdilution MIC (MIC) (E. coli [4]; Patient # 64, E. coli): 8
Broth Microdilution MIC (MIC) (E. coli [4]; Patient # 65, E. coli): 8
Broth Microdilution MIC (MIC) (E. coli [4]; Patient # 66, E. coli): 8
Broth Microdilution MIC (MIC) (E. coli [4]; Patient # 67*, E. coli): 2
Broth Microdilution MIC (MIC) (E. coli [4]; Patient # 68, E. coli): 8
SMILES: O=C1CN(/N=C/c2ccc([N+](=O)[O-])o2)C(=O)N1 [Nitrofurantoin]
